Experimental data reported in US20130065964A1, “PERITONEAL DIALYSIS SOLUTION” (UNIVERSIDAD DE CASTILLA LA MANCHA, priority 2010, published 2013).

Assays:
fibronectin = experiment: Real-time RT-PCR in PMCs from dialysed rats; type: in vivo, rat; details: peritoneal cells from rats dialysed four weeks, aliskiren 0.1 or 1 mg/Kg, FIG. 17
Protocol: The rats were exposed daily for four weeks to carrier (saline serum), 1.5% PDF, 2.3% PDF or 4.5% PDF supplemented by carrier, 0.1 mg/Kg aliskiren or 1 mg/Kg aliskiren. The data is expressed as mean±SEM, n=6 rats per group.* p<0.05, compared to the group treated with carrier in the absence of aliskiren (carrier). # p<0.05, compared to their respective groups treated with PDFs in the absence of aliskiren. […]
At the end of the experimental period (four weeks), 30 ml of a commercial PDF with 2.3% glucose (Fresenius Medical Car, Bad Homburg, Germany) was administered intraperitoneally using a 22G needle. […] Their body weight was measured at the start and end of the experimental period. […]
The blood and dialysate samples were centrifuged and stored at −20° C. The concentrations of creatinine and glucose in the serum and dialysate were measured using enzymatic methods. The peritoneal transport of solutes was calculated, on one hand, as the glucose concentration in the dialysate 2 hours after the PET relative to the initial glucose concentration in the PDF (D2/D0 glucose) and, on the other, as the dialysate/plasma creatinine concentration ratio (D2/P2 creatinine) 2 h after the PET. […]
The RNA expression was evaluated by real-time RT-PCR in PMCs. […] RNA quality and concentration was evaluated by spectrophotometry (Infinite 200, Tecan, Salzburg, Austria) using 1 μl of the RNA sample. […]

[1] = test system: reactive oxygen species (ROS) in rat PMCs; experiment: Reactive oxygen species by flow cytometry (DCF); type: cell-based; details: D-glucose 50 mM and 83 mM, 8 hours, aliskiren 10-100 μM, FIG. 6
Protocol: The cells were incubated in D-glucose at 50 mM (A) and 83 mM (B) for 8 hours in the presence or absence of aliskiren (10-100 μM) and dichlorofluorescein (DCF) intensity was measured using flow cytometry, as described in Material and Methods. The data is expressed as mean±SEM, n=3. * p<0.05 compared to untreated cells (control). # p<0.05, compared to cells treated with D-glucose in the presence of carrier (0).
Rat peritoneal mesothelial cells were isolated by enzymatic digestion in accordance with protocols described in Hjelle J T, Golinska B T, Waters D C, et al. Perit Dial Int 1989; 9: 341-7. Briefly, female rats weighing 200-400 g of the Spragle-Dawley strain were sacrificed pursuant to Royal Decree 1201/2005, of 10 Oct., on protection of animals used for experimental and other scientific purposes. The abdominal cavity was quickly opened and the abdominal wall (peritoneum and smooth muscle) extracted under sterile conditions. […]
After washing with PBS, the cells were incubated with 5.6-chloromethyl-2,7-dichlorodihydrofluorescein diacetate (CM-H2DCFDA, Invitrogen) for 15 minutes at 37° C., following the standard protocol (Lee H B, 2004). […] The production of reactive oxygen species was calculated on the basis of evaluation of 10,000 cells per experimental condition.

## COCCCOc1cc(C[C@@H](C[C@H](N)[C@@H](O)C[C@H](C(=O)NCC(C)(C)C(N)=O)C(C)C)C(C)C)ccc1OC [aliskiren]
fibronectin
  RNAm expression of fibronectin: increased
[1]
  production of reactive oxygen species: prevented
